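Growth conditions: 96-well plates. Treatment: test compound, 48 hours, 5 concentrations. Analysis: linear interpolation between bracketing concentrations; unreached endpoints set to highest concentration. TGI is the concentration that stops growth completely.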
Experiments:
Assay in all cases: NCI-60 cell line screen, 48 h
[1] = system: A549 NSCLC
[2] = system: CCRF-CEM leukemia
[3] = system: DLD-1 colon
[4] = system: OVCAR-4 ovarian
[5] = system: RXF-631 renal
[6] = system: SF-268 CNS
[7] = system: SK-MEL-28 melanoma
[8] = system: UACC-62 melanoma
[9] = system: MDA-MB-435
[10] = system: MDA-N
[11] = system: T-47D breast

O=C1C=CC(=C(c2ccc(O)cc2)c2ccc(O)cc2)C=C1
TGI [1]: 53.3 µM
TGI [2]: 12.2 µM
TGI [3]: 23.4 µM
TGI [4]: 27.6 µM
TGI [5]: 29.6 µM
TGI [6]: 29.7 µM
TGI [7]: 25.3 µM
TGI [8]: 14.5 µM

O=C1C=C2SC3C[C@@]24CC1[N+]1=c2c4c(c(O)c4c2=C(C=N4)CC1)N3
TGI [1]: 21.2 µM
TGI [2]: > 100 µM
TGI [3]: 5.12 µM
TGI [4]: 3.13 µM
TGI [6]: 2.9 µM
TGI [7]: 4.09 µM
TGI [8]: 3.23 µM

CCCCCCCCCCCCc1ccc(S(=O)(=O)O)cc1.[Zn+2]
TGI [1]: > 100 µM
TGI [2]: > 100 µM
TGI [9]: > 100 µM
TGI [10]: > 100 µM
TGI [4]: > 100 µM
TGI [6]: > 100 µM
TGI [7]: > 100 µM
TGI [11]: > 100 µM
TGI [8]: > 100 µM

COC12CCCN1c1ccn(Cc3ccccc3)c(=O)c1C2=O (stereo not drawn)
TGI [1]: > 100 µM
TGI [2]: > 100 µM
TGI [9]: > 100 µM
TGI [10]: > 100 µM
TGI [4]: > 100 µM
TGI [6]: > 100 µM
TGI [7]: > 100 µM
TGI [11]: > 100 µM
TGI [8]: > 100 µM

CC1(C)C(CCO)CC1n1cc(I)c(=O)[nH]c1=O (stereo not drawn)
TGI [1]: > 100 µM
TGI [2]: > 100 µM
TGI [9]: > 100 µM
TGI [10]: > 100 µM
TGI [4]: > 100 µM
TGI [6]: > 100 µM
TGI [7]: > 100 µM
TGI [11]: > 100 µM
TGI [8]: > 100 µM

C=CCc1cc(-c2cc(CC=C)c(O)c(CN(CC)CC)c2)cc(CN(CC)CC)c1O
TGI [1]: > 100 µM
TGI [2]: 79.1 µM
TGI [3]: > 100 µM
TGI [9]: > 92.7 µM
TGI [10]: > 73.5 µM
TGI [4]: > 100 µM
TGI [5]: 44.5 µM
TGI [6]: > 100 µM
TGI [7]: 80.6 µM
TGI [11]: > 100 µM
TGI [8]: 48.5 µM

COc1cc(C2SC(C)C(=O)N2c2ccc(-c3csc(NS(=O)(=O)c4ccc(Cl)c(OC)c4)n3)cc2)ccc1O (stereo not drawn)
TGI [1]: > 100 µM
TGI [2]: > 100 µM
TGI [9]: > 100 µM
TGI [10]: > 100 µM
TGI [4]: 79.9 µM
TGI [6]: 84.6 µM
TGI [7]: > 100 µM
TGI [11]: > 100 µM
TGI [8]: 55.3 µM

C=C1c2nc3ccccc3n2C=C(c2ccc(C)cc2)N1c1ccc(C)cc1
TGI [1]: > 100 µM
TGI [2]: > 100 µM
TGI [9]: > 78.2 µM
TGI [10]: > 92.3 µM
TGI [4]: > 100 µM
TGI [6]: > 100 µM
TGI [7]: > 100 µM
TGI [11]: > 100 µM
TGI [8]: > 100 µM

COC(OC)C1OCC(n2cc(F)c(=O)[nH]c2=O)C1O (stereo not drawn)
TGI [1]: > 100 µM
TGI [2]: > 100 µM
TGI [9]: > 100 µM
TGI [10]: > 100 µM
TGI [4]: > 100 µM
TGI [6]: > 100 µM
TGI [7]: > 100 µM
TGI [11]: > 100 µM
TGI [8]: > 100 µM

COc1ccc(/C=C/C(=O)c2cc(C(C)(C)C)c(O)c(C(C)(C)C)c2)cc1OC
TGI [1]: > 100 µM
TGI [2]: 11.8 µM
TGI [9]: 21.2 µM
TGI [10]: > 33.3 µM
TGI [4]: > 92.9 µM
TGI [6]: > 67.7 µM
TGI [7]: > 100 µM
TGI [11]: 24.4 µM
TGI [8]: 40.1 µM

CCOC(=O)c1nc2ccccc2nc1Oc1ccc(C(=O)OC)cc1
TGI [1]: > 100 µM
TGI [2]: > 100 µM
TGI [9]: > 100 µM
TGI [10]: > 100 µM
TGI [4]: > 100 µM
TGI [6]: > 100 µM
TGI [7]: > 100 µM
TGI [11]: > 100 µM
TGI [8]: > 100 µM

COc1ccc(NC(=O)CC(=O)n2nc(C)c(N=Nc3cccc(C)c3)c2C)cc1
TGI [1]: > 100 µM
TGI [2]: > 100 µM
TGI [9]: > 100 µM
TGI [10]: > 100 µM
TGI [4]: > 100 µM
TGI [6]: > 100 µM
TGI [7]: > 100 µM
TGI [11]: > 100 µM
TGI [8]: > 100 µM

Cc1ccc(-n2cc(-c3ccc(Cl)cc3)c3c(N/N=C4\SCC(=O)N4C)ncnc32)cc1
TGI [1]: 26.6 µM
TGI [2]: > 100 µM
TGI [9]: 40 µM
TGI [10]: 63.4 µM
TGI [4]: 8.03 µM
TGI [6]: > 100 µM
TGI [7]: 6.23 µM
TGI [11]: > 100 µM
TGI [8]: 11.2 µM

O=[N+]([O-])c1ccc(N/N=C/CC(O)(C(F)(F)F)C(F)(F)F)c([N+](=O)[O-])c1
TGI [1]: > 10 µM
TGI [2]: > 10 µM
TGI [9]: > 10 µM
TGI [10]: > 10 µM
TGI [4]: > 10 µM
TGI [6]: > 10 µM
TGI [7]: > 10 µM
TGI [11]: > 10 µM
TGI [8]: > 10 µM

CSc1cc(-c2ccccn2)nc(-c2ccccn2)c1
TGI [1]: 3.58 µM
TGI [2]: > 100 µM
TGI [9]: 12.9 µM
TGI [10]: 16 µM
TGI [4]: 13.2 µM
TGI [6]: > 35.2 µM
TGI [7]: 14.8 µM
TGI [11]: 17.6 µM
TGI [8]: 1.23 µM

O=c1oc2ccc([N+](=O)[O-])cc2c(Nc2ccc3c(c2)Sc2ccccc2O3)c1[N+](=O)[O-]
TGI [1]: 73.9 µM
TGI [2]: 50.4 µM
TGI [9]: 85 µM
TGI [10]: 88.8 µM
TGI [4]: 98.2 µM
TGI [6]: 61.6 µM
TGI [7]: 69.2 µM
TGI [11]: > 100 µM
TGI [8]: 32.3 µM

CC1=NN(C(=O)CC(=O)Nc2ccccc2Cl)C(=O)C1N=Nc1ccc(S(=O)(=O)c2ccc(N=NC3C(=O)N(C(=O)CC(=O)Nc4ccccc4Cl)N=C3C)cc2)cc1 (stereo not drawn)
TGI [1]: > 100 µM
TGI [2]: > 100 µM
TGI [9]: > 100 µM
TGI [10]: > 100 µM
TGI [4]: > 100 µM
TGI [6]: > 100 µM
TGI [7]: > 100 µM
TGI [11]: > 100 µM
TGI [8]: > 100 µM

CCCC(O)c1cn(C(NC(=O)c2ccccc2)P(=O)(OCC)OCC)nn1 (stereo not drawn)
TGI [1]: > 100 µM
TGI [2]: > 100 µM
TGI [9]: > 100 µM
TGI [10]: > 100 µM
TGI [4]: > 100 µM
TGI [6]: > 100 µM
TGI [7]: > 100 µM
TGI [11]: > 100 µM
TGI [8]: > 100 µM

CSC1C(=O)Nc2ccc3ccccc3c21 (stereo not drawn)
TGI [1]: > 100 µM
TGI [2]: 89.3 µM
TGI [9]: > 100 µM
TGI [10]: > 100 µM
TGI [4]: 39.9 µM
TGI [6]: 38 µM
TGI [7]: > 100 µM
TGI [11]: 29.4 µM
TGI [8]: 35.9 µM

Cc1ccc(NC(=O)C(Cc2c[nH]c3ccccc23)NC(=O)Oc2ccccc2)cc1C (stereo not drawn)
TGI [1]: > 100 µM
TGI [2]: > 100 µM
TGI [9]: > 100 µM
TGI [10]: > 100 µM
TGI [4]: > 100 µM
TGI [6]: > 100 µM
TGI [7]: > 100 µM
TGI [11]: > 100 µM
TGI [8]: > 100 µM

O=C(c1ccccc1)n1cc(-c2ccccc2)c2c(=O)[nH]cnc21
TGI [1]: > 100 µM
TGI [2]: > 100 µM
TGI [9]: > 100 µM
TGI [10]: > 100 µM
TGI [4]: > 100 µM
TGI [6]: > 100 µM
TGI [7]: > 100 µM
TGI [11]: > 100 µM
TGI [8]: > 100 µM

CCCCCc1cc2cc3c(c(O)c2c(=O)[nH]1)C1(CCC3)C(O)=c2c(=O)c3c(=O)cc(OC)c(=O)c=3c(=O)c2=C1O (stereo not drawn)
TGI [1]: 3.53 µM
TGI [2]: > 18.7 µM
TGI [9]: 3.13 µM
TGI [10]: 3.84 µM
TGI [4]: 4.44 µM
TGI [6]: 3.63 µM
TGI [7]: 3.68 µM
TGI [11]: 2.76 µM
TGI [8]: 3.29 µM

O=S(OC12CC3CC(CC(C3)C1)C2)c1cc(Cl)cc(Cl)c1OCc1ccccc1 (stereo not drawn)
TGI [2]: > 100 µM
TGI [3]: > 100 µM
TGI [4]: > 100 µM
TGI [5]: > 100 µM
TGI [6]: > 100 µM
TGI [7]: > 100 µM
TGI [8]: > 100 µM

CCO[C@@]1(COCc2ccccc2)OC(=O)C[C@@H]1N1C(=O)OC[C@@H]1c1ccccc1
TGI [1]: > 100 µM
TGI [2]: > 100 µM
TGI [9]: > 100 µM
TGI [10]: > 100 µM
TGI [4]: > 100 µM
TGI [6]: > 100 µM
TGI [7]: > 100 µM
TGI [11]: > 100 µM
TGI [8]: > 100 µM

CC(=O)OC(Cc1ccc2ccccc2n1)(C(F)(F)F)C(F)(F)F
TGI [1]: 44.3 µM
TGI [2]: 1.95 µM
TGI [9]: 3.55 µM
TGI [10]: 3.54 µM
TGI [4]: 7.08 µM
TGI [6]: 7.54 µM
TGI [7]: 4.03 µM
TGI [11]: 0.912 µM
TGI [8]: 2.93 µM

CCCCCCCC(CC(=O)NC(CO)C(=O)NC(CO)CC(C)C)OC(=O)CC(CCCCCCC)OC(=O)CC(CCCCCCC)OC1OC(C)C(O)C(OC2OC(C)C(O)C(O)C2OC(C)=O)C1O (stereo not drawn)
TGI [1]: 25.9 µM
TGI [2]: 11.8 µM
TGI [9]: 13.8 µM
TGI [10]: 16 µM
TGI [4]: 19.9 µM
TGI [6]: 21.2 µM
TGI [7]: 21.6 µM
TGI [11]: 21 µM
TGI [8]: 18.6 µM

COc1cc(O)c2c(=O)c3c(C)cccc3n(C)c2c1
TGI [1]: > 10 µM
TGI [2]: > 10 µM
TGI [9]: > 10 µM
TGI [10]: > 10 µM
TGI [4]: > 10 µM
TGI [6]: > 10 µM
TGI [7]: > 10 µM
TGI [11]: > 10 µM
TGI [8]: > 10 µM

Cc1ccc2c(=O)c(C(=O)Nn3c(C)csc3=S)c[nH]c2n1
TGI [1]: > 100 µM
TGI [2]: > 100 µM
TGI [9]: > 100 µM
TGI [10]: > 100 µM
TGI [4]: > 100 µM
TGI [6]: > 100 µM
TGI [7]: > 100 µM
TGI [11]: > 100 µM
TGI [8]: > 100 µM

CCOC(=O)c1sc2nc(SC)nc3c2c1NCN3c1ccc(F)c(F)c1
TGI [1]: 25.3 µM
TGI [2]: > 100 µM
TGI [9]: 41.7 µM
TGI [10]: > 45.8 µM
TGI [4]: 17.7 µM
TGI [6]: > 100 µM
TGI [7]: > 100 µM
TGI [11]: > 100 µM
TGI [8]: > 100 µM
